Experimental data from PubChem BioAssay (NCI).
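Values below derive from 48-hour exposures of cells grown in 96-well plates, with endpoints linearly interpolated between the two concentrations bracketing the appropriate inhibition level. Here, GI50 denotes the concentration required for 50% inhibition of growth. The concentration for full growth arrest is given as TGI.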

The molecules below were run on NCI-H23 lung (assay: DTP human tumour cell line panel, 48 h).

Question: Which GI50 does the source give for `COC(=O)c1cc2oc(/C=C3/SC(=S)N(NC(C)=O)C3=O)cc2n1C` here?
Answer: 16.6 µM

Question: And the TGI?
Answer: 50.1 µM

Question: What does the source list for `CC1(C)[C@@H](NOCCCN)CC[C@]2(C)[C@H]3C(=O)C=C4[C@@H]5C[C@](C)(C(=O)O)CC[C@]5(C)CC[C@@]4(C)[C@]3(C)CC[C@@H]12`?
Answer: GI50: 10.7 µM; TGI: 64.7 µM

Question: For `Oc1ccc(NCn2c(=S)sc3ccccc32)cc1`, which TGI is on record?
Answer: > 100 µM

Question: Which results are given for `O=C1NC(=NCc2ccccc2)S/C1=C\c1ccc2ncccc2c1`?
Answer: GI50: > 25 µM; TGI: > 25 µM

Each molecule was assayed on NCI-H460 lung (assay: DTP human tumour cell line panel, 48 h).

Question: For `COC(=O)c1cc2oc(/C=C3/SC(=S)N(NC(C)=O)C3=O)cc2n1C`, which GI50 is on record?
Answer: 8.26 µM

Question: What about the TGI of the same molecule?
Answer: > 100 µM

Question: Which results are given for `CC1(C)[C@@H](NOCCCN)CC[C@]2(C)[C@H]3C(=O)C=C4[C@@H]5C[C@](C)(C(=O)O)CC[C@]5(C)CC[C@@]4(C)[C@]3(C)CC[C@@H]12`?
Answer: GI50: 8.29 µM; TGI: 46 µM

Question: For `Oc1ccc(NCn2c(=S)sc3ccccc32)cc1`, which TGI is on record?
Answer: > 100 µM

Question: For `O=C1NC(=NCc2ccccc2)S/C1=C\c1ccc2ncccc2c1`, which GI50 is on record?
Answer: > 25 µM

Question: And the TGI?
Answer: > 25 µM

The molecules below were run on NCI-H522 lung (assay: DTP human tumour cell line panel, 48 h).

Question: Which GI50 does the source give for `COC(=O)c1cc2oc(/C=C3/SC(=S)N(NC(C)=O)C3=O)cc2n1C` here?
Answer: 16.4 µM

Question: What about the TGI of the same molecule?
Answer: 55.4 µM

Question: With `CC1(C)[C@@H](NOCCCN)CC[C@]2(C)[C@H]3C(=O)C=C4[C@@H]5C[C@](C)(C(=O)O)CC[C@]5(C)CC[C@@]4(C)[C@]3(C)CC[C@@H]12` as the molecule, how does the GI50 read?
Answer: 2.08 µM

Question: And the TGI?
Answer: 4.85 µM

Question: Which TGI does the source give for `Oc1ccc(NCn2c(=S)sc3ccccc32)cc1` here?
Answer: 40.5 µM

Question: What does the source list for `O=C1NC(=NCc2ccccc2)S/C1=C\c1ccc2ncccc2c1`?
Answer: GI50: > 15.5 µM; TGI: > 25 µM

Each molecule was assayed on NCI/ADR-RES ovarian (assay: DTP human tumour cell line panel, 48 h).

Question: Which results are given for `N=C(N)c1ccc(OCCCCCCCCCCOc2ccc(C(=N)N)cc2)cc1`?
Answer: GI50: 17.7 µM; TGI: 83.7 µM

Question: What does the source list for `COC(=O)c1cc2oc(/C=C3/SC(=S)N(NC(C)=O)C3=O)cc2n1C`?
Answer: GI50: 15.3 µM; TGI: 51.4 µM

Question: How did the GI50 turn out when `CC1(C)[C@@H](NOCCCN)CC[C@]2(C)[C@H]3C(=O)C=C4[C@@H]5C[C@](C)(C(=O)O)CC[C@]5(C)CC[C@@]4(C)[C@]3(C)CC[C@@H]12` was run?
Answer: 10.6 µM

Question: And the TGI?
Answer: 69.4 µM

Question: For `Oc1ccc(NCn2c(=S)sc3ccccc32)cc1`, which TGI is on record?
Answer: > 100 µM

Question: How did the GI50 turn out when `O=C1NC(=NCc2ccccc2)S/C1=C\c1ccc2ncccc2c1` was run?
Answer: > 25 µM

Question: And the TGI?
Answer: > 25 µM

Each molecule was assayed on OVCAR-3 ovarian (assay: DTP human tumour cell line panel, 48 h).

Question: How did the GI50 turn out when `COC(=O)c1cc2oc(/C=C3/SC(=S)N(NC(C)=O)C3=O)cc2n1C` was run?
Answer: 19.2 µM

Question: And the TGI?
Answer: 55 µM

Question: `CC1(C)[C@@H](NOCCCN)CC[C@]2(C)[C@H]3C(=O)C=C4[C@@H]5C[C@](C)(C(=O)O)CC[C@]5(C)CC[C@@]4(C)[C@]3(C)CC[C@@H]12` was tested. Which GI50 did it give?
Answer: 4.17 µM

Question: What about the TGI of the same molecule?
Answer: 19.7 µM

Question: With `Oc1ccc(NCn2c(=S)sc3ccccc32)cc1` as the molecule, how does the TGI read?
Answer: > 100 µM

Question: `O=C1NC(=NCc2ccccc2)S/C1=C\c1ccc2ncccc2c1` was tested. Which GI50 did it give?
Answer: > 25 µM

Question: And the TGI?
Answer: > 25 µM

What follows are molecules tested on OVCAR-4 ovarian (assay: DTP human tumour cell line panel, 48 h).

Question: Which GI50 does the source give for `COC(=O)c1cc2oc(/C=C3/SC(=S)N(NC(C)=O)C3=O)cc2n1C` here?
Answer: 37.7 µM

Question: And the TGI?
Answer: > 100 µM

Question: Which results are given for `CC1(C)[C@@H](NOCCCN)CC[C@]2(C)[C@H]3C(=O)C=C4[C@@H]5C[C@](C)(C(=O)O)CC[C@]5(C)CC[C@@]4(C)[C@]3(C)CC[C@@H]12`?
Answer: GI50: 8.69 µM; TGI: 34.8 µM

Question: With `Oc1ccc(NCn2c(=S)sc3ccccc32)cc1` as the molecule, how does the TGI read?
Answer: > 100 µM

Question: How did the GI50 turn out when `O=C1NC(=NCc2ccccc2)S/C1=C\c1ccc2ncccc2c1` was run?
Answer: > 25 µM

Question: What about the TGI of the same molecule?
Answer: > 25 µM

What follows are molecules tested on OVCAR-5 ovarian (assay: DTP human tumour cell line panel, 48 h).

Question: Which GI50 does the source give for `COC(=O)c1cc2oc(/C=C3/SC(=S)N(NC(C)=O)C3=O)cc2n1C` here?
Answer: 21.7 µM

Question: What about the TGI of the same molecule?
Answer: 54.9 µM

Question: Which results are given for `CC1(C)[C@@H](NOCCCN)CC[C@]2(C)[C@H]3C(=O)C=C4[C@@H]5C[C@](C)(C(=O)O)CC[C@]5(C)CC[C@@]4(C)[C@]3(C)CC[C@@H]12`?
Answer: GI50: 14.1 µM; TGI: 28.1 µM

Question: With `Oc1ccc(NCn2c(=S)sc3ccccc32)cc1` as the molecule, how does the TGI read?
Answer: > 100 µM

Question: Which GI50 does the source give for `O=C1NC(=NCc2ccccc2)S/C1=C\c1ccc2ncccc2c1` here?
Answer: > 25 µM

Question: What about the TGI of the same molecule?
Answer: > 25 µM

The molecules below were run on OVCAR-8 ovarian (assay: DTP human tumour cell line panel, 48 h).

Question: How did the GI50 turn out when `COC(=O)c1cc2oc(/C=C3/SC(=S)N(NC(C)=O)C3=O)cc2n1C` was run?
Answer: 23.1 µM

Question: What about the TGI of the same molecule?
Answer: 99.1 µM

Question: Which GI50 does the source give for `CC1(C)[C@@H](NOCCCN)CC[C@]2(C)[C@H]3C(=O)C=C4[C@@H]5C[C@](C)(C(=O)O)CC[C@]5(C)CC[C@@]4(C)[C@]3(C)CC[C@@H]12` here?
Answer: 6.18 µM

Question: And the TGI?
Answer: 28.7 µM

Question: How did the TGI turn out when `Oc1ccc(NCn2c(=S)sc3ccccc32)cc1` was run?
Answer: > 100 µM

Question: How did the GI50 turn out when `O=C1NC(=NCc2ccccc2)S/C1=C\c1ccc2ncccc2c1` was run?
Answer: > 25 µM

Question: And the TGI?
Answer: > 25 µM

Each molecule was assayed on PC-3 prostate (assay: DTP human tumour cell line panel, 48 h).

Question: How did the GI50 turn out when `COC(=O)c1cc2oc(/C=C3/SC(=S)N(NC(C)=O)C3=O)cc2n1C` was run?
Answer: 25.6 µM

Question: What about the TGI of the same molecule?
Answer: 68.4 µM

Question: With `CC1(C)[C@@H](NOCCCN)CC[C@]2(C)[C@H]3C(=O)C=C4[C@@H]5C[C@](C)(C(=O)O)CC[C@]5(C)CC[C@@]4(C)[C@]3(C)CC[C@@H]12` as the molecule, how does the GI50 read?
Answer: 3.66 µM

Question: And the TGI?
Answer: 19 µM

Question: Which TGI does the source give for `Oc1ccc(NCn2c(=S)sc3ccccc32)cc1` here?
Answer: > 100 µM

Question: Which results are given for `O=C1NC(=NCc2ccccc2)S/C1=C\c1ccc2ncccc2c1`?
Answer: GI50: > 25 µM; TGI: > 25 µM

These molecules were tested on RPMI-8226 leukemia (assay: DTP human tumour cell line panel, 48 h).

Question: What does the source list for `COC(=O)c1cc2oc(/C=C3/SC(=S)N(NC(C)=O)C3=O)cc2n1C`?
Answer: GI50: 24 µM; TGI: > 100 µM

Question: Which results are given for `CC1(C)[C@@H](NOCCCN)CC[C@]2(C)[C@H]3C(=O)C=C4[C@@H]5C[C@](C)(C(=O)O)CC[C@]5(C)CC[C@@]4(C)[C@]3(C)CC[C@@H]12`?
Answer: GI50: 2.8 µM; TGI: 19.7 µM

Question: `Oc1ccc(NCn2c(=S)sc3ccccc32)cc1` was tested. Which TGI did it give?
Answer: > 100 µM

Question: How did the GI50 turn out when `O=C1NC(=NCc2ccccc2)S/C1=C\c1ccc2ncccc2c1` was run?
Answer: > 25 µM

Question: And the TGI?
Answer: > 25 µM

Each molecule was assayed on RXF 393 renal (assay: DTP human tumour cell line panel, 48 h).

Question: Which GI50 does the source give for `N=C(N)c1ccc(OCCCCCCCCCCOc2ccc(C(=N)N)cc2)cc1` here?
Answer: 1.28 µM

Question: And the TGI?
Answer: 2.87 µM

Question: `COC(=O)c1cc2oc(/C=C3/SC(=S)N(NC(C)=O)C3=O)cc2n1C` was tested. Which GI50 did it give?
Answer: 36.5 µM

Question: What about the TGI of the same molecule?
Answer: 87.7 µM

Question: For `CC1(C)[C@@H](NOCCCN)CC[C@]2(C)[C@H]3C(=O)C=C4[C@@H]5C[C@](C)(C(=O)O)CC[C@]5(C)CC[C@@]4(C)[C@]3(C)CC[C@@H]12`, which GI50 is on record?
Answer: 2.3 µM

Question: And the TGI?
Answer: 5.31 µM

Question: With `Oc1ccc(NCn2c(=S)sc3ccccc32)cc1` as the molecule, how does the TGI read?
Answer: > 100 µM

Question: Which results are given for `O=C1NC(=NCc2ccccc2)S/C1=C\c1ccc2ncccc2c1`?
Answer: GI50: > 25 µM; TGI: > 25 µM

What follows are molecules tested on SF-268 CNS (assay: DTP human tumour cell line panel, 48 h).

Question: For `COC(=O)c1cc2oc(/C=C3/SC(=S)N(NC(C)=O)C3=O)cc2n1C`, which GI50 is on record?
Answer: 28.4 µM

Question: What about the TGI of the same molecule?
Answer: > 100 µM

Question: For `CC1(C)[C@@H](NOCCCN)CC[C@]2(C)[C@H]3C(=O)C=C4[C@@H]5C[C@](C)(C(=O)O)CC[C@]5(C)CC[C@@]4(C)[C@]3(C)CC[C@@H]12`, which GI50 is on record?
Answer: 8.92 µM

Question: What about the TGI of the same molecule?
Answer: 21.6 µM

Question: Which TGI does the source give for `Oc1ccc(NCn2c(=S)sc3ccccc32)cc1` here?
Answer: > 100 µM

Question: Which GI50 does the source give for `O=C1NC(=NCc2ccccc2)S/C1=C\c1ccc2ncccc2c1` here?
Answer: > 25 µM

Question: And the TGI?
Answer: > 25 µM

These molecules were tested on SF-295 CNS (assay: DTP human tumour cell line panel, 48 h).

Question: `COC(=O)c1cc2oc(/C=C3/SC(=S)N(NC(C)=O)C3=O)cc2n1C` was tested. Which GI50 did it give?
Answer: 18.2 µM

Question: What about the TGI of the same molecule?
Answer: 65.5 µM

Question: What does the source list for `CC1(C)[C@@H](NOCCCN)CC[C@]2(C)[C@H]3C(=O)C=C4[C@@H]5C[C@](C)(C(=O)O)CC[C@]5(C)CC[C@@]4(C)[C@]3(C)CC[C@@H]12`?
Answer: GI50: 10.3 µM; TGI: 29.1 µM

Question: With `Oc1ccc(NCn2c(=S)sc3ccccc32)cc1` as the molecule, how does the TGI read?
Answer: > 100 µM

Question: How did the GI50 turn out when `O=C1NC(=NCc2ccccc2)S/C1=C\c1ccc2ncccc2c1` was run?
Answer: > 25 µM

Question: And the TGI?
Answer: > 25 µM

What follows are molecules tested on SF-539 CNS (assay: DTP human tumour cell line panel, 48 h).

Question: What does the source list for `COC(=O)c1cc2oc(/C=C3/SC(=S)N(NC(C)=O)C3=O)cc2n1C`?
Answer: GI50: 12.9 µM; TGI: 29.1 µM

Question: Which GI50 does the source give for `CC1(C)[C@@H](NOCCCN)CC[C@]2(C)[C@H]3C(=O)C=C4[C@@H]5C[C@](C)(C(=O)O)CC[C@]5(C)CC[C@@]4(C)[C@]3(C)CC[C@@H]12` here?
Answer: 11.9 µM

Question: And the TGI?
Answer: 24.2 µM

Question: Which TGI does the source give for `Oc1ccc(NCn2c(=S)sc3ccccc32)cc1` here?
Answer: > 100 µM

Question: How did the GI50 turn out when `O=C1NC(=NCc2ccccc2)S/C1=C\c1ccc2ncccc2c1` was run?
Answer: > 25 µM

Question: What about the TGI of the same molecule?
Answer: > 25 µM
